Laboratory results reported in patent publication US8252807B2, “Methods of inhibiting the interaction between S100 and the receptor for advanced glycation end-products” (Board of Regents, The University of Texas System, priority 2007, dated 2012).

Tests used:
[1] = test system: NFκB activity of BxPC-3 cells transplanted orthotopically; test: NFκB promoter activity in vivo, orthotopic BxPC-3 tumors; set-up: species or system mice
Procedure: FIGS. 3A, 3B, and 3C show the effect of cromolyn on S100P stimulated NFκB promoter activity in pancreatic cancer cells in vitro and in vivo. Panc-1 and BxPC-3 pancreatic cancer cell lines stably expressing an NFκB luciferase reporter were examined for the effects of S100P and cromolyn. […] Means and 95% confidence intervals are shown for three independent experiments performed in triplicate. *, P=0.022, †, P<0.001, and ‡, P<0.001 versus control; #, P=0.005 versus 100 nM S100P alone. […] Means and 95% confidence intervals are shown for three independent experiments performed in triplicate. *, P=0.003, †, P<0.001 versus control. […] After 1 week, tumor growth was assessed and NFκB activity was analyzed using an IVIS system (Xenogen Corp., Alameda, Calif.) after injecting mice with D-luciferin (150 mg per kg body weight) (0 time point). The mice were treated with cromolyn (5 mg per kg body weight by intraperitoneal injection), and NFκB luciferase activity was analyzed again at 24 and 48 hours. *, P=0.005 versus control. Means and 95% confidence intervals are shown for two independent experiments (n=4 mice per group). Two-tailed two-sample (unpaired for in vitro and paired for in vivo studies) Student's t-tests were used to determine P values.
To measure NFκB promoter activity in vivo, BxPC-3 cells (50,000/50 μL) stably expressing a Lenti-NFkB-luc reporter were transplanted orthotopically into the pancreas of 4-week-old male CB 17 scid mice (n=4 mice per experiment). After 1 week mice were injected with D-luciferin (150 mg per kg body weight, i.p.), and basal NFκB activity was determined using the IVIS system. Subsequently, mice were injected with cromolyn (5 mg per kg body weight, i.p.), and NFκB luciferase activity was re-analyzed after 24 and 48 hours. These experiments were performed three times.

[2] = test system: BxPC-3 cells; test: BxPC-3 cell growth (MTS); format: cell-based; details: 48 hours; for BxPC-3 basal cell proliferation, mean: 0 μM mean=1.2
Procedure: BxPC-3 cells were plated at 1.0×10^3 cells/well and treated with 0 μM, 1 μM, 10 μM, and 100 μM of cromolyn, and cell proliferation was analyzed after 48 hours. Means and 95% confidence intervals of three independent experiments performed in triplicate are shown. *, P=0.002; †, P<0.001 versus control. Growth of Panc-1 and BxPC3 pancreatic adenocarcinoma cells was analyzed using MTS reagent (Promega, Madison, Wis.) according to the manufacturer's directions. Purified S100P (100 nM final concentration) with or without cromolyn (100 μM final concentration) was added to Panc-1 cells. Only cromolyn (0-100 μM) was added to BxPC-3 cells, which express endogenous S100P. For both cell models, 1.0×10^3 cells/well were plated in 96-well culture dishes. Cells were treated with S100P, PDGF, or cromolyn, or a combination, followed immediately by treatment with either S100P or PDGF. MTS (20 μL per well) was added to cells at various times, and the mixture was incubated for 1 hour at 37° C. Samples were then read at 490 nm (as O.D. units) on a uQuant-Microplate Spectrophotometer (Bio-Tek Services Inc., Richmond, Va.). The assay was performed three times in triplicate.

[3] = test system: SKOV3 ovarian cells; test: SKOV3 ovarian cell proliferation; format: cell-based; details: 24, 48 and 72 hours
Procedure: SKOV3 ovarian cells were cultured for up to three days in the presence of different concentrations of cromolyn, and cell proliferation was analyzed at 24, 48, and 72 hours. *, P<0.05.

SMILES: O=C(O)c1cc(=O)c2c(OCC(O)COc3cccc4oc(C(=O)O)cc(=O)c34)cccc2o1 [cromolyn, disodium 1,3-bis[(2′-carboxylatochromon-5′-yl)oxy]-2-hydroxypropane]
- NFκB luciferase activity in vivo, mean ([1]; 24 h after single dose 5 mg per kg i.p., 0 h mean=9.9×10^6): 1.3×10^6 photons/sec
- reduction of basal NFκB activity in vivo ([1]; 24 hours after single dose 5 mg per kg i.p.): at least 80%
- NFκB activity in vivo at 48 hours ([1]; 48 hours after single dose 5 mg per kg i.p.): returned to control levels
- NFκB luciferase activity in vivo, difference 0 h versus 24 h ([1]; single dose 5 mg per kg i.p.): 8.6×10^6 photons/sec
- BxPC-3 cell proliferation, difference versus 0 μM ([2]; cromolyn 10 μM): 0.5 MTS units
- BxPC-3 basal cell proliferation, mean ([2]; cromolyn 10 μM): 0.7 MTS units
- BxPC-3 cell proliferation, difference versus 0 μM ([2]; cromolyn 100 μM): 0.6 MTS units
- BxPC-3 basal cell proliferation, mean ([2]; cromolyn 100 μM): 0.6 MTS units
- growth of SKOV3 cells [3]: reduced the growth
